Consider 92 molecules from PubChem BioAssay AID463203 (Broad Institute, 2010).

Activity calls are given as the source filed them.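 How the source made its calls: active means more than half of replicate measurements showing over 20% loss of kinase signal relative to plate controls; inconclusive means some but at most half of replicates over 20% loss; inactive means no replicate over 20% signal loss.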

As a reminder, the AC50 is the midpoint of the concentration-response curve, whichever way the signal moves.

In the assay the target is Glycogen synthase kinase-3 alpha (Homo sapiens) (UniProt P49840). In words: concentration-response blocking of human GSK3A – biochemical, luminescence, cell-free homogeneous, retest, dose response (AID 463203). To be noted: GSK-3 alpha enzyme, ADP-Glo luminescence, 60 min.
Sequence of Glycogen synthase kinase-3 alpha (Homo sapiens) (P49840 whole entry, looked up): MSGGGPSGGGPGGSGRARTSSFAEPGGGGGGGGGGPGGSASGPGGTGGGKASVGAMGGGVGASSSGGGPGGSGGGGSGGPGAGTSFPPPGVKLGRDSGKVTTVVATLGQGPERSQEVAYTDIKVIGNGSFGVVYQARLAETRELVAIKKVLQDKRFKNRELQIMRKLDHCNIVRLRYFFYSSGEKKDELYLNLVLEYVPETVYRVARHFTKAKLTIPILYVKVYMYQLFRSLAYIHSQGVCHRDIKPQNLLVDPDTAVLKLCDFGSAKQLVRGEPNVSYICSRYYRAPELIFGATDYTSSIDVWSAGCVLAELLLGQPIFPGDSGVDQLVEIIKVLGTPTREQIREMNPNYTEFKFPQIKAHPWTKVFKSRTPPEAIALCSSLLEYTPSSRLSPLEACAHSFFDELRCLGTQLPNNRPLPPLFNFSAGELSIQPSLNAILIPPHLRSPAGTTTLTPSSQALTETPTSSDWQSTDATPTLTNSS
On to `Cc1noc(C)c1COc1ccc(C(=O)OCC(=O)Nc2c(C)n(C)n(-c3ccccc3)c2=O)cc1`, for which the AC50 is > 30 µM (inactive). Under `Oc1[nH]c2ccccc2c1N=Nc1ccccc1` stands 13.9 µM. With `Cc1ccc(CSc2ccc3nnc(-c4cccnc4)n3n2)cc1`, the AC50 is > 30 µM (inactive). The value for `COc1ccc2nc(NC(=O)CSc3nc4ccccc4o3)sc2c1` was 28.8 µM; that for `N#Cc1cc(-c2cccc(Cl)c2)c[nH]c1=O` was > 30 µM (inactive). The value for `O=C1NC(=Nc2ccccc2)S/C1=C\c1cccs1` was > 30 µM (inactive); that for `CCOc1ccc(Cn2nnc(C(=O)Nc3ccc(OC)cc3OC)c2N)cc1` was > 30 µM (inactive); that for `CCN1CCN(c2c(Cl)cccc2NC(=O)c2cccs2)CC1` was > 30 µM (inactive). As to `COc1ccc(-n2c(Cc3cccn3C)nnc2SCC(=O)Nc2ccc(F)cc2)cc1`, the AC50 is > 30 µM (inactive). Under `COc1ccc(CCn2cnc(=O)c(C#N)c2C)cc1OC` stands > 30 µM (inactive); under `CC(C)CC(O)C1CCN(C(=O)CCc2nnc(-c3ccc4c(c3)OCO4)o2)CC1` (configuration not stated), > 30 µM (inactive); under `CC(Oc1ccc(Br)cc1)C(=O)N1CCC(C(N)=O)CC1` (configuration not stated), > 30 µM (inactive). Under `CCOC(=O)c1cc(-c2ccccc2)n(CCC(=O)NC(C)CC)c1C` (configuration not stated) stands > 30 µM (inactive); under `COC(=O)c1c(NC(=O)Cc2cccs2)sc2c1CCCC2`, > 30 µM (inactive). For the molecule `O=[N+]([O-])c1cnc2nc(-c3ccncc3)nn2c1O`, the AC50 was 8.27 µM.

Consider `O=C(CSc1nnc(SCc2ccccc2Cl)s1)N/N=C/c1ccc(C(=O)O)cc1`, for which the AC50 was 5.94 µM. The value for `CC(C)(C)NC(=O)/C(=C\c1ccccc1F)NC(=O)c1ccc([N+](=O)[O-])cc1` was > 30 µM (inactive); that for `O=C(Nc1ccccc1-c1nnc(SCc2ccccc2)o1)c1ccccc1` was > 30 µM (inactive); that for `CC(=O)Nc1ccc(S(=O)(=O)NC(C)c2ccncc2)cc1` (configuration not stated) was > 30 µM (inactive). The value for `COC(=O)c1c(NC(=O)CN2C(=O)NC3(CCC(C)CC3)C2=O)sc2c1CCC2` (configuration not stated) was > 30 µM (inactive); that for `O=C(Cn1c(NCCCO)nc2ccccc21)c1ccc([N+](=O)[O-])cc1` was > 30 µM (inactive); that for `COc1ccc2c(c1)C(SCC(=O)NCc1ccccc1)CC(C)(C)O2` (configuration not stated) was > 30 µM (inactive). The value for `O=C(Cn1c(NCCO)nc2ccccc21)NCC1CCCO1` (configuration not stated) was > 30 µM (inactive). With `COc1ccc(NC(=O)c2c(Nc3ccccc3)sc(C(=O)c3ccc(F)cc3)c2N)cc1`, the AC50 is > 30 µM (inactive). The value for `CSc1nc(SCCN(C)C)c2c3c(sc2n1)COC(C)(C)C3` was > 30 µM (inactive). Under `C=CCNc1nc(N)c(C(=O)c2ccc3c(c2)OCO3)s1` stands 0.211 µM; under `COc1ccc(N=Nc2c(C)n[nH]c2C)cc1`, > 30 µM (inactive). Under `CC(C)N=C(NC#N)SCc1ccc(Br)cc1` stands > 30 µM (inactive); under `CCOC(=O)C1CCN(c2c(C(=O)c3ccccc3)cnc3ccc(CC)cc23)CC1`, > 30 µM (inactive). For `O=C(O)c1ccc(Nc2nc(-c3cccnc3)nc3ccccc23)cc1`, the half-maximal activity concentration (AC50) was 9.3 µM. Under `CC(=O)Nc1ccc(-c2csc(NCc3ccccc3)n2)cc1` stands > 30 µM (inactive); under `COc1cccc(C(=O)O/N=C(\N)c2ccccn2)c1`, 16.8 µM; under `CCCCC(=O)Nc1sc2c(c1C(N)=O)CCC2`, > 30 µM (inactive). Under `CC(=O)Nc1ccc(C(=O)OCC(=O)Nc2c(C)n(C)n(-c3ccccc3)c2=O)cc1` stands > 30 µM (inactive); under `CCN1CCN(c2c(Cl)cccc2NC(=O)c2cc3ccccc3o2)CC1`, > 30 µM (inactive); under `Cc1cccc(-n2nc(C)c3c2NC2=C(C(=O)CCC2)C3c2ccccn2)c1` (configuration not stated), > 30 µM (inactive). The value for `COc1ccc(CCNc2ccc(S(=O)(=O)N3CCCC3)cc2[N+](=O)[O-])cc1` was > 30 µM (inactive).

As to `CCCCn1c(O)c(C(CC)=NCCCn2ccnc2)c(=O)[nH]c1=O`, the AC50 is 13.9 µM. Under `CCOC(=O)c1c(NC(=O)C2CC2)sc(C)c1CC` stands > 30 µM (inactive); under `C=CC(=O)Nc1sc2c(c1C(N)=O)CCCC2`, 13.9 µM; under `COc1cccc(Nc2ncnc3nc[nH]c23)c1`, 19.7 µM. Under `Cc1ccc(CSc2nnc(SCC(=O)N/N=C/c3ccc(C(=O)O)cc3)s2)cc1` stands > 30 µM (inactive); under `CCCCNc1nc(N)nc(-c2cc(Cl)ccc2O)n1`, 3.04 µM; under `CCCNC(=O)OCCC12CC3CC(CC(C3)C1)C2`, > 30 µM (inactive). The value for `CCOC(=O)N1CCC(NC(=O)CCc2nc(C3=CCN(C)CC3)no2)CC1` was > 30 µM (inactive); that for `COc1ccc(S(=O)(=O)N[C@H](C(=O)O)C(C)C)cc1` was > 30 µM (inactive). Take `COc1ccccc1C(=O)NNC(=O)c1cccc(Br)c1`: the AC50 was > 30 µM (inactive). The value for `N#CC1=C2SCN(Cc3ccco3)CN2C(=O)CC1c1c(F)cccc1Cl` (configuration not stated) was > 30 µM (inactive).

`O=C1NC(=S)N/C1=C\c1ccc(N2CCOCC2)cc1`: the AC50 is > 30 µM (inactive). Under `CC(C)COc1ncnc2c1sc1nc3c(cc12)COC(C)(C)C3` stands > 30 µM (inactive); under `Cc1cccc(C)c1OCC(=O)Nc1ccc2c(c1)C(=O)NC2=O`, 22.5 µM; under `COc1ccc(OCC(=O)Nc2ccc3c(c2)C(=O)NC3=O)cc1`, 12.2 µM. Under `Oc1[nH]c2ccc(Br)cc2c1N=Nc1nn[nH]n1` stands 23.3 µM; under `Fc1ccccc1CSc1nnc(-c2cccnc2)o1`, > 30 µM (inactive).

Consider `COc1ccc(/C=C/c2nc(N)nc(-c3ccccc3O)n2)cc1OC`, for which the AC50 is > 30 µM (inactive).

Take `C=CCn1c(O)c(C=NC2CCN(Cc3ccccc3)CC2)c(=O)[nH]c1=O`: the AC50 is > 30 µM (inactive). In the case of `CC(=O)Oc1ccc(C(=O)c2ccccc2)c(OC(C)=O)c1`, the AC50 was > 30 µM (inactive). The value for `CCOC(=O)c1c(NC(=O)CN2C(=O)NC3(CCC(C)CC3)C2=O)sc(C)c1CC` (configuration not stated) was > 30 µM (inactive). Under `Cc1cnn(-c2cc(N/N=C/c3ccc(F)cc3)ncn2)c1` stands > 30 µM (inactive). The value for `OCc1nnn(-c2ccccc2)c1CO` was > 30 µM (inactive); that for `CCOC(=O)c1cnc2cc(F)c(F)cc2c1N1CCN(C)CC1` was > 30 µM (inactive). Regarding `CCCCC(NS(=O)(=O)c1ccc(OC)cc1)C(=O)O` (configuration not stated), the AC50 is > 30 µM (inactive). Under `Cc1ccc(-c2nnc(CSc3nnc(C)s3)o2)cc1` stands > 30 µM (inactive).

As to `FC(F)(F)c1cnc(N/N=C/c2ccncc2)c(Cl)c1`, the AC50 was > 30 µM (inactive). The value for `COc1ccc(-c2cc(C(=O)N3CCN(c4ccccc4)CC3)no2)cc1OC` was > 30 µM (inactive); that for `N#C/C(C(N)=O)=C1/CCc2ccccc2N1` was 12.5 µM. The value for `COc1ccc(-n2c(C)c([N+](=O)[O-])c3ccc(O)c(CN4CCCCC4)c32)cc1` was 19.1 µM; that for `COc1ccc(/C=N/NC(=O)c2nnn(-c3nonc3N)c2CN(C)c2ccccc2)cc1` was > 30 µM (inactive).

On to `COc1ccc(CC(=O)Oc2cc(C)ccc2C)cc1`, for which the AC50 was > 30 µM (inactive). Under `CCCCc1[nH]c(=O)c(C#N)c2c1CCCC2` stands > 30 µM (inactive); under `COc1cccc(C(C[N+](=O)[O-])c2c(C)[nH]n(-c3ccccc3)c2=O)c1` (configuration not stated), > 30 µM (inactive); under `CC(C)c1nnc(NC(=O)CCN2C(=O)c3ccccc3C2=O)s1`, > 30 µM (inactive). Under `Cc1ccc(S(=O)(=O)Nc2cccc3cccnc23)cc1` stands > 30 µM (inactive); under `CCCCN(CCCC)c1cn[nH]c(=O)c1Cl`, 11.2 µM; under `COCC(O)CSc1nc(C)[nH]c1[N+](=O)[O-]` (configuration not stated), > 30 µM (inactive).

As to `O=C(NCCCn1ccnc1)C(F)(F)C(F)(F)C(=O)NCCCn1ccnc1`, the AC50 was > 30 µM (inactive). Consider `CC(C)(C)CNc1cc(N2CCCC2)ccc1[N+](=O)[O-]`, for which the AC50 was > 30 µM (inactive). Under `Cc1cccc(C(=O)OCC(=O)Nc2c(C)n(C)n(-c3ccccc3)c2=O)c1` stands > 30 µM (inactive); under `CC(OC(=O)Cc1c[nH]c2ccccc12)C(=O)N(C)c1ccccc1` (configuration not stated), > 30 µM (inactive); under `NCc1cccc(CNc2ccc([N+](=O)[O-])cc2C(N)=O)c1`, 5.96 µM. With `CC(C)c1c(C(=O)N/N=C/c2ccsc2)nnn1-c1nonc1N`, the AC50 was > 30 µM (inactive). Take `Cc1cnc(NC(=O)C2CC(=O)N(c3ccc4c(c3)OCCO4)C2)s1` (configuration not stated): the AC50 was > 30 µM (inactive).

On to `Cc1nc(NCC2CCCO2)nc2c1C(=O)CC(C)C2` (configuration not stated), for which the AC50 was > 30 µM (inactive). Under `CCN1/C(=C/C=C/c2sc3ccccc3[n+]2CC)Sc2ccccc21` stands 24.6 µM; under `CCOC(=O)N1CCC(N2CCN(S(=O)(=O)c3ccc([N+](=O)[O-])cc3)CC2)CC1`, > 30 µM (inactive); under `Cc1ccc(C(=O)N2NC(c3ccccc3F)C3C(=O)N(c4cccc(C)c4)C(=O)C32)cc1` (configuration not stated), > 30 µM (inactive). The value for `CC(C)CCNc1nc(N)c([N+](=O)[O-])c(N2CCCCCC2)n1` was 8.86 µM; that for `COc1ccc(COC(=O)C2=C(C)NC(=O)NC2c2ccccc2F)cc1` (configuration not stated) was > 30 µM (inactive); that for `CC1CCCCC12NC(=O)N(CC(=O)Nc1sccc1C(N)=O)C2=O` (configuration not stated) was > 30 µM (inactive).

As for `S=C(NCc1ccc2c(c1)OCO2)NCc1ccc2c(c1)OCO2`, the AC50 is 25.5 µM. Under `CN1/C(=C/C(=S)NC(=O)C2CCC2)C(C)(C)c2ccccc21` stands > 30 µM (inactive); under `CCN=C1S/C(=C/c2ccc(-c3ccc(Cl)cc3C(=O)O)o2)C(=O)N1CC`, 4.3 µM.
